# Data reported in US11661426B2, “Imidazole-containing inhibitors of ALK2 kinase” (BioCryst Pharmaceuticals, Inc., priority 2017, dated 2023).
# Molecular target: ALK2 (Homo sapiens (Human), UniProt Q04771)
# Assay: ALK2 inhibition, LanthaScreen Eu Kinase Binding Assay (ThermoFisher Scientific / Life Technologies)
# Conditions: read-out: Measured Ki (IC50) Value for Compounds: IC50
# Protocol: Biochemical assays to measure the inhibitory effects of the compounds were performed by ThermoFisher Scientific (Life Technologies). ALK2 inhibition was tested using LanthaScreen™ Eu Kinase Binding Assay screening protocol.
# Chain of ALK2 (Q04771 21-509): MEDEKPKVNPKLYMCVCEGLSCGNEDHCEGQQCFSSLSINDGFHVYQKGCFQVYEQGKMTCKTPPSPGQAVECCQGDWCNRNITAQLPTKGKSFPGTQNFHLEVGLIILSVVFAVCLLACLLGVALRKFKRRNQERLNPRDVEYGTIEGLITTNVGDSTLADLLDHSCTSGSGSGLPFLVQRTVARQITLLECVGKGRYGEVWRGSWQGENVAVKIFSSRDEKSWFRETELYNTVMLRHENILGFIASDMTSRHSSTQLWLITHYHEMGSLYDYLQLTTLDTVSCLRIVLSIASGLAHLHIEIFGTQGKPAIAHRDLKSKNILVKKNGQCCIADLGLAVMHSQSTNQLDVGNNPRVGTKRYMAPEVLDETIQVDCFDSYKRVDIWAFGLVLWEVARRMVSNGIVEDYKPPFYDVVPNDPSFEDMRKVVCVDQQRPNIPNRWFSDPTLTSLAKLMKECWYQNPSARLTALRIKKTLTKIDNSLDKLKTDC
row,IC50,Structure (SMILES)
1,< 100 nM,"OC[C@@H]1CCCN1c1nc(Nc2cn(-c3cnc4ccccc4c3)cn2)c2cccn2n1 [Compound 38c, (S)-(1-(4-((1-(quinolin-3-yl)-1H-imidazol-4-yl)amino)pyrrolo[2,1-f][1,2,4]triazin-2-yl)pyrrolidin-2-yl)methanol]"
2,< 100 nM,"OC[C@@H]1CCCN1c1nc(Nc2cn(-c3cccnc3)cn2)c2cccn2n1 [Compound 39c, (S)-(1-(4-((1-(pyridin-3-yl)-1H-imidazol-4-yl)amino)pyrrolo[2,1-f][1,2,4]triazin-2-yl)pyrrolidin-2-yl)methanol]"
3,< 100 nM,"c1ccc(C2CCCN2c2nc(Nc3cn(-c4ccccc4)cn3)c3occc3n2)cc1 (stereo not shown) [Compound 40a, N-(1-phenyl-1H-imidazol-4-yl)-2-(2-phenylpyrrolidin-1-yl)furo[3,2-d]pyrimidin-4-amine]"
4,< 100 nM,"Cc1csc2c(Nc3cn(-c4ccccc4)cn3)nc(N3CCC[C@H]3CO)nc12 [Compound 41c, (S)-(1-(7-methyl-4-((1-phenyl-1H-imidazol-4-yl)amino)thieno[3,2-d]pyrimidin-2-yl)pyrrolidin-2-yl)methanol]"
5,< 100 nM,"Cc1cc2nc(N3CCC[C@H]3CO)nc(Nc3cn(-c4ccc(F)cc4)cn3)c2s1 [Compound 42b, (S)-(1-(4-((1-(4-fluorophenyl)-1H-imidazol-4-yl)amino)-6-methylthieno[3,2-d]pyrimidin-2-yl)pyrrolidin-2-yl)methanol]"
6,< 100 nM,"OC[C@@H]1CCCN1c1nc(Nc2cn(C3CCC3)cn2)c2cccn2n1 [Compound 43a, (S)-(1-(4-((1-cyclobutyl-1H-imidazol-4-yl)amino)pyrrolo[2,1-f][1,2,4]triazin-2-yl)pyrrolidin-2-yl)methanol]"
7,< 100 nM,"OC[C@@H]1CCCN1c1nc(Nc2cn(-c3cccc(F)c3)cn2)c2cccn2n1 [Compound 44c, (S)-(1-(4-((1-(3-fluorophenyl)-1H-imidazol-4-yl)amino)pyrrolo[2,1-f][1,2,4]triazin-2-yl)pyrrolidin-2-yl)methanol]"
8,100 to 1000 nM,"COc1cc(F)c(CC(=O)N2CCN(c3nc(Nc4cn(-c5ccccc5)cn4)c4ccsc4n3)CC2)c(F)c1 [Compound 45d, 2-(2,6-difluoro-4-methoxyphenyl)-1-(4-(4-((1-phenyl-1H-imidazol-4-yl)amino)thieno[2,3-d]pyrimidin-2-yl)piperazin-1-yl)ethanone]"
9,100 to 1000 nM,"c1ccc([C@@H]2CCCN2c2nc(Nc3cn(C4CCCCC4)cn3)c3cccn3n2)cc1 [Compound 46a, (S)—N-(1-cyclohexyl-1H-imidazol-4-yl)-2-(2-phenylpyrrolidin-1-yl)pyrrolo[2,1-f][1,2,4]triazin-4-amine]"
10,< 100 nM,"CC(=O)c1cccc(-n2cnc(Nc3nc(N4CCC[C@H]4CO)nn4cccc34)c2)c1 [Compound 47c, (S)-1-(3-(4-((2-(2-(hydroxymethyl)pyrrolidin-1-yl)pyrrolo[2,1-f][1,2,4]triazin-4-yl)amino)-1H-imidazol-1-yl)phenyl)ethanone]"
11,< 100 nM,"OC[C@@H]1CCCN1c1nc(Nc2cn(-c3ccc(O)cc3)cn2)c2cccn2n1 [Compound 48c, (S)-4-(4-((2-(2-(hydroxymethyl)pyrrolidin-1-yl)pyrrolo[2,1-f][1,2,4]triazin-4-yl)amino)-1H-imidazol-1-yl)phenol]"
12,< 100 nM,"OC[C@@H]1CCCN1c1nc(Nc2cn(-c3ccc(Cl)cc3)cn2)c2cccn2n1 [Compound 49c, (S)-(1-(4-((1-(4-chlorophenyl)-1H-imidazol-4-yl)amino)pyrrolo[2,1-f][1,2,4]triazin-2-yl)pyrrolidin-2-yl)methanol]"
13,< 100 nM,"OC[C@@H]1CCCN1c1nc(Nc2cn(C3CCCC3)cn2)c2cccn2n1 [Compound 50c, (S)-(1-(4-((1-cyclopentyl-1H-imidazol-4-yl)amino)pyrrolo[2,1-f][1,2,4]triazin-2-yl)pyrrolidin-2-yl)methanol]"
14,100 to 1000 nM,"COc1cc(F)c(CC(=O)N2CCN(c3nc(Nc4cn(C)cn4)c4cccn4n3)CC2)c(F)c1 [Compound 51a, 2-(2,6-difluoro-4-methoxyphenyl)-1-(4-(4-((1-methyl-1H-imidazol-4-yl)amino)pyrrolo[2,1-f][1,2,4]triazin-2-yl)piperazin-1-yl)ethanone]"
15,100 to 1000 nM,"COc1cc(F)c(CC(=O)N2CCN(c3nc(Nc4cn(-c5ccccc5)cn4)c4cccn4n3)CC2)c(F)c1 [Compound 52a, 2-(2,6-difluoro-4-methoxyphenyl)-1-(4-(4-((1-phenyl-1H-imidazol-4-yl)amino)pyrrolo[2,1-f][1,2,4]triazin-2-yl)piperazin-1-yl)ethanone]"
16,100 to 1000 nM,"Cn1cnc(Nc2nc(N3CCN(C(=O)Cc4ccccc4)CC3)nn3cccc23)c1 [Compound 53b, 1-(4-(4-((1-methyl-1H-imidazol-4-yl)amino)pyrrolo[2,1-f][1,2,4]triazin-2-yl)piperazin-1-yl)-2-phenylethanone]"
17,< 100 nM,"CC(C)(C)OC(=O)N1CCN(c2nc(Nc3cn(-c4ccccc4)cn3)c3sccc3n2)CC1 [Compound 54a, tert-butyl 4-(4-((1-phenyl-1H-imidazol-4-yl)amino)thieno[3,2-d]pyrimidin-2-yl)piperazine-1-carboxylate]"

row,IC50,Structure (SMILES)
1,< 100 nM,"COc1ccc(-n2cnc(Nc3nc(N4CCC[C@H]4CO)nn4cccc34)c2)cc1 [Compound 55c, (S)-(1-(4-((1-(4-methoxyphenyl)-1H-imidazol-4-yl)amino)pyrrolo[2,1-f][1,2,4]triazin-2-yl)pyrrolidin-2-yl)methanol]"
2,< 100 nM,"COc1cccc(-n2cnc(Nc3nc(N4CCC[C@H]4CO)nn4cccc34)c2)c1 [Compound 56c, (S)-(1-(4-((1-(3-methoxyphenyl)-1H-imidazol-4-yl)amino)pyrrolo[2,1-f][1,2,4]triazin-2-yl)pyrrolidin-2-yl)methanol]"
3,< 100 nM,"COc1cc(-n2cnc(Nc3nc(N4CCC[C@H]4CO)nn4cccc34)c2)cc(OC)c1OC [Compound 57c, (S)-(1-(4-((1-(3,4,5-trimethoxyphenyl)-1H-imidazol-4-yl)amino)pyrrolo[2,1-f][1,2,4]triazin-2-yl)pyrrolidin-2-yl)methanol]"
4,< 100 nM,"OC[C@@H]1CCCN1c1nc(Nc2cn(-c3ccc(F)cc3)cn2)c2sccc2n1 [Compound 58b, (S)-(1-(4-((1-(4-fluorophenyl)-1H-imidazol-4-yl)amino)thieno[3,2-d]pyrimidin-2-yl)pyrrolidin-2-yl)methanol]"
5,100 to 1000 nM,"N#CC1CC(n2cnc(Nc3nc(N4CCCC4c4ccccn4)nn4cccc34)c2)C1 (stereo not shown) [Compound 59c, 3-(4-((2-(2-(pyridin-2-yl)pyrrolidin-1-yl)pyrrolo[2,1-f][1,2,4]triazin-4-yl)amino)-1H-imidazol-1-yl)cyclobutanecarbonitrile]"
6,< 100 nM,"OC[C@@H]1CCCN1c1nc(Nc2cn(-c3ccc(F)cc3)cn2)c2ccsc2n1 [Compound 60b, (S)-(1-(4-((1-(4-fluorophenyl)-1H-imidazol-4-yl)amino)thieno[2,3-d]pyrimidin-2-yl)pyrrolidin-2-yl)methanol]"
7,< 100 nM,"CC(C)(C)CC(=O)N1CCN(c2nc(Nc3cn(-c4ccccc4)cn3)c3ccsc3n2)CC1 [Compound 61b, 3,3-dimethyl-1-(4-(4-((1-phenyl-1H-imidazol-4-yl)amino)thieno[2,3-d]pyrimidin-2-yl)piperazin-1-yl)butan-1-one]"
8,100 to 1000 nM,"CCN(CCO)c1nc(Nc2cn(-c3ccccc3)cn2)c2ccsc2n1 [Compound 62b, 2-(ethyl(4-(1-phenyl-1H-imidazol-4-ylamino)thieno[2,3-d]pyrimidin-2-yl)amino)ethanol]"
9,< 100 nM,"c1ccc([C@@H]2CCCN2c2nc(Nc3cn(C4CCC4)cn3)c3cccn3n2)cc1 [Compound 63a, (S)—N-(1-cyclobutyl-1H-imidazol-4-yl)-2-(2-phenylpyrrolidin-1-yl)pyrrolo[2,1-f][1,2,4]triazin-4-amine]"
10,< 100 nM,"c1ccc([C@@H]2CCCN2c2nc(Nc3cn(C4CCC4)cn3)c3cccn3n2)nc1 [Compound 64a, (S)—N-(1-cyclobutyl-1H-imidazol-4-yl)-2-(2-(pyridin-2-yl)pyrrolidin-1-yl)pyrrolo[2,1-f][1,2,4]triazin-4-amine]"
11,100 to 1000 nM,"OC[C@@H]1CCCN1c1nc(Nc2cn(-c3ccc4cc[nH]c4c3)cn2)c2cccn2n1 [Compound 65c, (S)-(1-(4-((1-(1H-indol-6-yl)-1H-imidazol-4-yl)amino)pyrrolo[2,1-f][1,2,4]triazin-2-yl)pyrrolidin-2-yl)methanol]"
12,< 100 nM,"OC[C@@H]1CCCN1c1nc(Nc2cn(-c3ccccn3)cn2)c2cccn2n1 [Compound 66c, (S)-(1-(4-((1-(pyridin-2-yl)-1H-imidazol-4-yl)amino)pyrrolo[2,1-f][1,2,4]triazin-2-yl)pyrrolidin-2-yl)methanol]"
13,< 100 nM,"OC[C@@H]1CCCN1c1nc(Nc2cn(-c3ccc4[nH]ccc4c3)cn2)c2cccn2n1 [Compound 67c, (S)-(1-(4-((1-(1H-indol-5-yl)-1H-imidazol-4-yl)amino)pyrrolo[2,1-f][1,2,4]triazin-2-yl)pyrrolidin-2-yl)methanol]"
14,< 100 nM,"N#CC1CC(n2cnc(Nc3nc(N4CCC[C@H]4CO)nn4cccc34)c2)C1 (stereo partly drawn) [Compound 68a, (S)-3-(4-((2-(2-(hydroxymethyl)pyrrolidin-1-yl)pyrrolo[2,1-f][1,2,4]triazin-4-yl)amino)-1H-imidazol-1-yl)cyclobutanecarbonitrile]"
15,< 100 nM,"c1ccc(C2CCCN2c2nc(Nc3cn(C4CCCC4)cn3)c3cccn3n2)nc1 (stereo not shown) [Compound 69a, N-(1-cyclopentyl-1H-imidazol-4-yl)-2-(2-(pyridin-2-yl)pyrrolidin-1-yl)pyrrolo[2,1-f][1,2,4]triazin-4-amine]"
16,< 100 nM,"OCc1cc2c(Nc3cn(-c4ccccc4)cn3)nc(N3CCC[C@H]3CO)nc2s1 [Compound 70f, (S)-(1-(6-(hydroxymethyl)-4-((1-phenyl-1H-imidazol-4-yl)amino)thieno[2,3-d]pyrimidin-2-yl)pyrrolidin-2-yl)methanol]"
17,< 100 nM,"OC[C@@H]1CCCN1c1nc(Nc2cn(-c3cc[nH]n3)cn2)c2cccn2n1 [Compound 71c, (S)-(1-(4-((1-(1H-pyrazol-3-yl)-1H-imidazol-4-yl)amino)pyrrolo[2,1-f][1,2,4]triazin-2-yl)pyrrolidin-2-yl)methanol]"
